Results on one molecule are retold here after publication PMC5218480 (PLoS ONE, 2017).

For this assay, the system named is MV-4-11 cells. In words: Gene expression microarray analysis (Affymetrix PrimeView) and GSEA. Format: cell-based, human. The arrangement: RFU PODN (11730768_x_at) / Fold change /veh PODN (11730768_x_at) / RFU LINC00158 (11744669_a_at) / Fold change /veh LINC00158 (11744669_a_at) / RFU DUSP10 (11751237_a_at) / Fold change /veh DUSP10 (11751237_a_at) / RFU ID3 (11757404_x_at) / Fold change /veh ID3 (11757404_x_at) / RFU PLEKHG5 (11737974_s_at) / Fold change /veh PLEKHG5 (11737974_s_at) / RFU LRRC4B (11730491_at) / Fold change /veh LRRC4B (11730491_at) / RFU GIMAP4 (11747438_a_at) / Fold change /veh GIMAP4 (11747438_a_at) / RFU KRT8 (11758183_x_at) / Fold change /veh KRT8 (11758183_x_at) / RFU CNN1 (11734310_a_at) / Fold change /veh CNN1 (11734310_a_at) / RFU VPS37D (11726825_at) / Fold change /veh VPS37D (11726825_at) / RFU C10orf10 (11716522_x_at) / Fold change /veh C10orf10 (11716522_x_at) / RFU KIR2DL2 /// KIR2DL4 /// KIR2DL5A /// KIR2DL5B /// KIR2DS1 /// KIR2DS2 /// KIR2DS3 /// KIR2DS4 /// KIR3DL3 /// KIR3DL3 /// KIR3DS1 (11738374_at) / Fold change /veh KIR2DL2 /// KIR2DL4 /// KIR2DL5A /// KIR2DL5B /// KIR2DS1 /// KIR2DS2 /// KIR2DS3 /// KIR2DS4 /// KIR3DL3 /// KIR3DL3 /// KIR3DS1 (11738374_at) / RFU C1QL1 (11718748_at) / Fold change /veh C1QL1 (11718748_at) / RFU TMPRSS4 (11747572_a_at) / Fold change /veh TMPRSS4 (11747572_a_at) / RFU HAMP (11756126_x_at) / Fold change /veh HAMP (11756126_x_at) / RFU RNFT2 (11725882_a_at) / Fold change /veh RNFT2 (11725882_a_at) / RFU NR4A2 (11747474_a_at) / Fold change /veh NR4A2 (11747474_a_at) / RFU ABCC12 (11746883_a_at) / Fold change /veh ABCC12 (11746883_a_at) / RFU TMEM136 (11760407_x_at) / Fold change /veh TMEM136 (11760407_x_at) / RFU CLDN22 /// WWC2 (11732394_at) / Fold change /veh CLDN22 /// WWC2 (11732394_at) / RFU HLA-DPB1 (11760878_x_at) / Fold change /veh HLA-DPB1 (11760878_x_at) / RFU SPINT1 (11716480_a_at) / Fold change /veh SPINT1 (11716480_a_at) / RFU GAP43 (11754022_s_at) / Fold change /veh GAP43 (11754022_s_at) / RFU A4GNT (11735810_at) / Fold change /veh A4GNT (11735810_at) / RFU PRB3 (11715151_x_at) / Fold change /veh PRB3 (11715151_x_at) / RFU TUBB4B (11761932_at) / Fold change /veh TUBB4B (11761932_at) / RFU CAPN14 (11732068_a_at) / Fold change /veh CAPN14 (11732068_a_at) / RFU TMCC2 (11721928_a_at) / Fold change /veh TMCC2 (11721928_a_at) / RFU IRGQ (11745062_a_at) / Fold change /veh IRGQ (11745062_a_at) / RFU FAM174B (11720279_a_at) / Fold change /veh FAM174B (11720279_a_at) / RFU TMPRSS4 (11748680_a_at) / Fold change /veh TMPRSS4 (11748680_a_at) / RFU FAM212B (11763350_a_at) / Fold change /veh FAM212B (11763350_a_at) / RFU PLEKHG5 (11743358_a_at) / Fold change /veh PLEKHG5 (11743358_a_at) / RFU ZSCAN30 (11745921_a_at) / Fold change /veh ZSCAN30 (11745921_a_at) / RFU CMKLR1 (11741424_a_at) / Fold change /veh CMKLR1 (11741424_a_at) / RFU LOC101060620 /// MAPK8IP1 (11723275_at) / Fold change /veh LOC101060620 /// MAPK8IP1 (11723275_at) / RFU SPTSSB (11747773_x_at) / Fold change /veh SPTSSB (11747773_x_at) / RFU PRSS12 (11739890_at) / Fold change /veh PRSS12 (11739890_at) / RFU BIN1 (11741810_x_at) / Fold change /veh BIN1 (11741810_x_at) / RFU WNT11 (11732464_a_at) / Fold change /veh WNT11 (11732464_a_at) / RFU C10orf10 (11716521_a_at) / Fold change /veh C10orf10 (11716521_a_at) / RFU C5orf56 (11738089_at) / Fold change /veh C5orf56 (11738089_at) / RFU CYB561 (11721691_x_at) / Fold change /veh CYB561 (11721691_x_at) / RFU ANKRD19P (11752326_a_at) / Fold change /veh ANKRD19P (11752326_a_at) / RFU OR2T12 /// OR2T33 /// OR2T8 (11738714_s_at) / Fold change /veh OR2T12 /// OR2T33 /// OR2T8 (11738714_s_at) / RFU VCAN (11748164_a_at) / Fold change /veh VCAN (11748164_a_at) / RFU JSRP1 (11732532_at) / Fold change /veh JSRP1 (11732532_at) / RFU KRTAP10-11 (11738290_x_at) / Fold change /veh KRTAP10-11 (11738290_x_at) / RFU MYO3A (11730013_a_at) / Fold change /veh MYO3A (11730013_a_at) / RFU EBF3 (11725865_a_at) / Fold change /veh EBF3 (11725865_a_at) / RFU CAMK2N1 (11719241_x_at) / Fold change /veh CAMK2N1 (11719241_x_at) / RFU C5orf56 (11738088_a_at) / Fold change /veh C5orf56 (11738088_a_at) / RFU OLFML3 (11715873_a_at) / Fold change /veh OLFML3 (11715873_a_at) / RFU LOC100653217 /// NTM (11731650_a_at) / Fold change /veh LOC100653217 /// NTM (11731650_a_at) / RFU MAPK11 (11762145_a_at) / Fold change /veh MAPK11 (11762145_a_at) / RFU FIZ1 (11724087_x_at) / Fold change /veh FIZ1 (11724087_x_at) / RFU OASL (11726364_x_at) / Fold change /veh OASL (11726364_x_at) / RFU SOX15 (11748057_x_at) / Fold change /veh SOX15 (11748057_x_at) / RFU CD79A (11719716_a_at) / Fold change /veh CD79A (11719716_a_at) / RFU HIST1H1D (11736915_at) / Fold change /veh HIST1H1D (11736915_at) / RFU CASKIN2 (11723855_a_at) / Fold change /veh CASKIN2 (11723855_a_at) / RFU LOC730098 (11760151_x_at) / Fold change /veh LOC730098 (11760151_x_at) / RFU OR4N2 (11742367_at) / Fold change /veh OR4N2 (11742367_at) / RFU PRRT2 (11749266_a_at) / Fold change /veh PRRT2 (11749266_a_at) / RFU SNX32 (11753110_a_at) / Fold change /veh SNX32 (11753110_a_at) / RFU CDHR5 (11726645_a_at) / Fold change /veh CDHR5 (11726645_a_at) / RFU RCAN1 (11760418_a_at) / Fold change /veh RCAN1 (11760418_a_at) / RFU FAM167A (11723789_a_at) / Fold change /veh FAM167A (11723789_a_at) / RFU FAM26E (11764081_at) / Fold change /veh FAM26E (11764081_at) / RFU ISYNA1 (11749810_s_at) / Fold change /veh ISYNA1 (11749810_s_at) / RFU ACY1 (11761880_at) / Fold change /veh ACY1 (11761880_at) / RFU 11764098_at / Fold change /veh 11764098_at / RFU SAMD14 (11745864_x_at) / Fold change /veh SAMD14 (11745864_x_at) / RFU NPB (11741838_a_at) / Fold change /veh NPB (11741838_a_at) / RFU TMPRSS6 (11731388_a_at) / Fold change /veh TMPRSS6 (11731388_a_at) / RFU KRTAP10-2 (11738614_at) / Fold change /veh KRTAP10-2 (11738614_at) / RFU ARHGAP8 /// PRR5-ARHGAP8 (11727945_x_at) / Fold change /veh ARHGAP8 /// PRR5-ARHGAP8 (11727945_x_at) / RFU KRTAP5-7 /// NADSYN1 (11734609_at) / Fold change /veh KRTAP5-7 /// NADSYN1 (11734609_at) / RFU RASL12 (11751679_a_at) / Fold change /veh RASL12 (11751679_a_at) / RFU CDKN2B (11736163_a_at) / Fold change /veh CDKN2B (11736163_a_at) / RFU PRF1 (11729649_at) / Fold change /veh PRF1 (11729649_at) / RFU, ZNF638 /// ZNF638-IT1 / Fold change vs veh, ZNF638 /// ZNF638-IT1 / RFU, PANK3 / Fold change vs veh, PANK3 / RFU, SH3YL1 / Fold change vs veh, SH3YL1 / RFU, ZEB2 / Fold change vs veh, ZEB2 / RFU, NRIP1 / Fold change vs veh, NRIP1 / RFU, PTTG1IP / Fold change vs veh, PTTG1IP / RFU, CAPN2 / Fold change vs veh, CAPN2 / RFU, MED14 / Fold change vs veh, MED14 / RFU, SNORA58 / Fold change vs veh, SNORA58 / RFU, C1orf63 / Fold change vs veh, C1orf63 / RFU, LRRFIP1 / Fold change vs veh, LRRFIP1 / RFU, NDUFAF7 / Fold change vs veh, NDUFAF7 / RFU, SLC12A2 / Fold change vs veh, SLC12A2 / RFU, IBTK / Fold change vs veh, IBTK / RFU, ESF1 / Fold change vs veh, ESF1 / Fold change vs veh, TMEM50B / RFU, TAOK1 / Fold change vs veh, TAOK1 / RFU, ACBD3 / Fold change vs veh, ACBD3 / RFU, TMA16 / Fold change vs veh, TMA16 / RFU, RWDD3 / Fold change vs veh, RWDD3 / RFU, BCAT1 / Fold change vs veh, BCAT1 / RFU, EDEM3 / Fold change vs veh, EDEM3 / RFU, TMEM33 / Fold change vs veh, TMEM33 / RFU, WDR75 / Fold change vs veh, WDR75 / RFU, AHCTF1 / Fold change vs veh, AHCTF1 / RFU, TFRC / Fold change vs veh, TFRC / RFU, ZDHHC17 / Fold change vs veh, ZDHHC17 / RFU, NOM1 / Fold change vs veh, NOM1 / RFU, ARL8B / Fold change vs veh, ARL8B / RFU, ZBTB11 / Fold change vs veh, ZBTB11 / RFU, TAMM41 / Fold change vs veh, TAMM41 / RFU, KIAA1704 /// LOC100996395 / Fold change vs veh, KIAA1704 /// LOC100996395 / RFU, ING1 / Fold change vs veh, ING1 / RFU, TRMT61B / Fold change vs veh, TRMT61B / RFU, FUBP3 / Fold change vs veh, FUBP3 / RFU, TP53 / Fold change vs veh, TP53 / RFU, TNKS2 / Fold change vs veh, TNKS2 / RFU, ZFP14 / Fold change vs veh, ZFP14 / RFU, ACTR2 / Fold change vs veh, ACTR2 / RFU, PPP3R1 / Fold change vs veh, PPP3R1 / RFU, PIK3R1 / Fold change vs veh, PIK3R1 / RFU, HNRNPA1 / Fold change vs veh, HNRNPA1 / RFU, RNF170 / Fold change vs veh, RNF170 / RFU, ZNF28 / Fold change vs veh, ZNF28 / RFU, RNGTT / Fold change vs veh, RNGTT / RFU, OGT / Fold change vs veh, OGT / RFU, BRD1 / Fold change vs veh, BRD1 / RFU, MARS / Fold change vs veh, MARS / RFU, ZNF655 / Fold change vs veh, ZNF655 / RFU, FAHD1 / Fold change vs veh, FAHD1 / RFU, BDP1 / Fold change vs veh, BDP1 / RFU, LRRCC1 / Fold change vs veh, LRRCC1 / RFU, ARID1A / Fold change vs veh, ARID1A / RFU, ZNF146 / Fold change vs veh, ZNF146 / RFU, ZNF330 / Fold change vs veh, ZNF330 / RFU, GPN3 / Fold change vs veh, GPN3 / RFU, C9orf123 / Fold change vs veh, C9orf123 / RFU, N4BP2L2 / Fold change vs veh, N4BP2L2 / RFU, ARFIP1 / Fold change vs veh, ARFIP1 / RFU, FAM179B / Fold change vs veh, FAM179B / RFU, BCL10 / Fold change vs veh, BCL10 / RFU, UHRF1BP1L / Fold change vs veh, UHRF1BP1L / RFU, BET1 / Fold change vs veh, BET1 / RFU, CNOT2 / Fold change vs veh, CNOT2 / RFU, ZNF268 / Fold change vs veh, ZNF268 / Fold change vs veh, ZNF507 / RFU, DGCR2 / Fold change vs veh, DGCR2 / RFU, WDSUB1 / Fold change vs veh, WDSUB1 / Fold change vs veh, HSP90B1 /// MIR3652 / RFU, ADSS / Fold change vs veh, ADSS / RFU, GK / Fold change vs veh, GK / RFU, ZNF148 / Fold change vs veh, ZNF148 / RFU, TAF9 / Fold change vs veh, TAF9 / RFU, SLC1A5 / Fold change vs veh, SLC1A5 / RFU, SLMO2 / Fold change vs veh, SLMO2 / RFU, ABCC4 / Fold change vs veh, ABCC4 / RFU, LOC101060439 /// RAP1B / Fold change vs veh, LOC101060439 /// RAP1B / RFU, RFX7 / Fold change vs veh, RFX7 / RFU, GTPBP10 / Fold change vs veh, GTPBP10 / RFU, CNEP1R1 / Fold change vs veh, CNEP1R1 / RFU, BIVM-ERCC5 /// ERCC5 / Fold change vs veh, BIVM-ERCC5 /// ERCC5 / RFU, ILF3 / Fold change vs veh, ILF3 / RFU 11762660_at / Fold change /veh 11762660_at / RFU VCAN (11757783_s_at) / Fold change /veh VCAN (11757783_s_at) / RFU DDX43 (11728927_at) / Fold change /veh DDX43 (11728927_at) / RFU KRT8 (11758188_x_at) / Fold change /veh KRT8 (11758188_x_at) / RFU NKD1 (11759106_at) / Fold change /veh NKD1 (11759106_at) / RFU SRD5A1 (11742802_a_at) / Fold change /veh SRD5A1 (11742802_a_at) / RFU TPSAB1 /// TPSB2 (11721975_s_at) / Fold change /veh TPSAB1 /// TPSB2 (11721975_s_at) / RFU GSTM3 (11746129_a_at) / Fold change /veh GSTM3 (11746129_a_at) / RFU IL23R (11737362_x_at) / Fold change /veh IL23R (11737362_x_at) / RFU TMEM51 (11727254_a_at) / Fold change /veh TMEM51 (11727254_a_at) / RFU PIWIL2 (11732686_x_at) / Fold change /veh PIWIL2 (11732686_x_at) / RFU ORM1 (11744905_x_at) / Fold change /veh ORM1 (11744905_x_at) / RFU CCDC152 (11743942_at) / Fold change /veh CCDC152 (11743942_at) / RFU ECM1 (11717891_a_at) / Fold change /veh ECM1 (11717891_a_at) / RFU IL23R (11748794_a_at) / Fold change /veh IL23R (11748794_a_at) / RFU TNFAIP8L3 (11732012_x_at) / Fold change /veh TNFAIP8L3 (11732012_x_at) / RFU MBOAT4 (11741988_at) / Fold change /veh MBOAT4 (11741988_at) / RFU 11764193_at / Fold change /veh 11764193_at / RFU TMEM53 (11763286_at) / Fold change /veh TMEM53 (11763286_at) / RFU MAGEB2 (11727129_at) / Fold change /veh MAGEB2 (11727129_at) / RFU TMEM200A (11744735_a_at) / Fold change /veh TMEM200A (11744735_a_at) / RFU CCDC152 (11751479_a_at) / Fold change /veh CCDC152 (11751479_a_at) / RFU FAM211A (11726209_a_at) / Fold change /veh FAM211A (11726209_a_at) / RFU RGS16 (11746705_a_at) / Fold change /veh RGS16 (11746705_a_at) / RFU VCAN (11755009_s_at) / Fold change /veh VCAN (11755009_s_at) / RFU RHOB (11743442_s_at) / Fold change /veh RHOB (11743442_s_at) / RFU RGS16 (11720943_a_at) / Fold change /veh RGS16 (11720943_a_at) / RFU RGS16 (11720944_at) / Fold change /veh RGS16 (11720944_at) / RFU, VPS4B / Fold change vs veh, VPS4B / RFU, CREB1 / Fold change vs veh, CREB1 / RFU, DNAJC13 / Fold change vs veh, DNAJC13 / RFU, GNAQ / Fold change vs veh, GNAQ / RFU, CDK5R1 / Fold change vs veh, CDK5R1 / RFU, ZRANB3 / Fold change vs veh, ZRANB3 / RFU, CUL4A / Fold change vs veh, CUL4A / RFU, CCNY / Fold change vs veh, CCNY / RFU, UFL1 / Fold change vs veh, UFL1 / RFU, COG3 / Fold change vs veh, COG3 / RFU, DIAPH2 / Fold change vs veh, DIAPH2 / RFU, SKA2 / Fold change vs veh, SKA2 / RFU, AFF3 / Fold change vs veh, AFF3 / RFU, LMF1 / Fold change vs veh, LMF1 / RFU, IPO11 / Fold change vs veh, IPO11 / RFU, DFFB / Fold change vs veh, DFFB / RFU, FOXP1 / Fold change vs veh, FOXP1 / RFU, CARD8 / Fold change vs veh, CARD8 / RFU, STRN3 / Fold change vs veh, STRN3 / RFU, ADK / Fold change vs veh, ADK / RFU, RASSF2 / Fold change vs veh, RASSF2 / RFU, WIPF1 / Fold change vs veh, WIPF1 / RFU, LARP1B / Fold change vs veh, LARP1B / RFU, RASA1 / Fold change vs veh, RASA1 / RFU, RB1 / Fold change vs veh, RB1 / RFU, PPFIA1 / Fold change vs veh, PPFIA1 / RFU, MAT2A / Fold change vs veh, MAT2A / RFU, CCT5 / Fold change vs veh, CCT5 / RFU, WDR92 / Fold change vs veh, WDR92 / RFU, CUX1 / Fold change vs veh, CUX1 / RFU, TTC7A / Fold change vs veh, TTC7A / RFU, TMEM135 / Fold change vs veh, TMEM135 / RFU, DEPTOR / Fold change vs veh, DEPTOR / RFU, CPM / Fold change vs veh, CPM / RFU, DNAJB6 / Fold change vs veh, DNAJB6 / RFU, CACNA2D3 / Fold change vs veh, CACNA2D3 / RFU, DTX4 / Fold change vs veh, DTX4 / RFU, TFCP2 / Fold change vs veh, TFCP2 / RFU, GMCL1 /// GMCL1P1 / Fold change vs veh, GMCL1 /// GMCL1P1 / RFU, AEBP2 / Fold change vs veh, AEBP2 / RFU, SNHG1 /// SNORD22 /// SNORD25 /// SNORD26 /// SNORD27 /// SNORD28 /// SNORD29 /// SNORD31 / Fold change vs veh, SNHG1 /// SNORD22 /// SNORD25 /// SNORD26 /// SNORD27 /// SNORD28 /// SNORD29 /// SNORD31 / Fold change (Aza/veh), C12orf56 (ProbeSet 11735607_a_at) / Fold change (ACY-1035/veh), C12orf56 (ProbeSet 11735607_a_at) / Fold change (Aza/veh), FGFR1OP (ProbeSet 11751329_s_at) / Fold change (ACY-1035/veh), FGFR1OP (ProbeSet 11751329_s_at) / Fold change (Aza/veh), VPS36 (ProbeSet 11739960_a_at) / Fold change (ACY-1035/veh), VPS36 (ProbeSet 11739960_a_at) / RFU SYPL1 (11715823_x_at) / Fold change /veh SYPL1 (11715823_x_at) / RFU IGFBP7 (11715501_s_at) / Fold change /veh IGFBP7 (11715501_s_at) / RFU REEP3 (11722064_at) / Fold change /veh REEP3 (11722064_at) / RFU IGLL1 (11728026_x_at) / Fold change /veh IGLL1 (11728026_x_at): dose or concentration left out as unconfirmed. Conditions: ProbeSet 11758170_s_at; LIST D.

As to `Nc1ncn([C@@H]2O[C@H](CO)[C@@H](O)[C@H]2O)c(=O)n1` [azacitidine], the “RFU, DIAPH2” value is 23.40 RFU.
